From patent US20260125378A2, “Heterocyclic Compounds” (BeOne Medicines I GmbH, priority 2023, published 2026) come the findings set out here.

Test [1] addresses T1, Full length DGKζ (in-house protein M1-V929) (Homo sapiens, UniProt Q13574).
T1 construct: His (N); TEV site (N); made in house; host or cells: Sf9 insect cells (Bac-to-Bac baculovirus)
The experiment in a line: Biochemical DGK IC50 assay (ADP-Glo, lipid micelle substrate), DGKζ. The conditions noted are these: 1 hour preincubation, 1 hour reaction, room temperature. The gist of the method: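 Enzyme: full-length human DGKζ M1-V929, produced in baculovirus-infected Sf9 cells; substrate DAG/PS micelles. Buffer 50 mM HEPES, 10 mM MgCl2, 0.01 mM CaCl2, 0.1 mM Na3VO4.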
Background: ADP-Glo first removes unused ATP, then detects ADP through luciferase.

The target of test [2] is T2, Full length DGKα (D21-10BG, SignalChem) (Homo sapiens, UniProt P23743).
T2 construct: Full length DGKα (D21-10BG, SignalChem); purchased SignalChem D21-10BG
The experiment in a line: Biochemical DGK IC50 assay (ADP-Glo, lipid micelle substrate), DGKα. The conditions noted are these: 1 hour preincubation, 1 hour reaction, room temperature. The gist of the method: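 ADP-Glo luminescence quantified ADP produced after a 1 h room-temperature reaction of full-length DGKα on DAG/PS micelles, in HEPES buffer containing MgCl2, CaCl2, vanadate, BSA and Tween-20. IC50 values derive from activity inhibition over a compound concentration series.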

T1 sequence (Q13574 1-929 isoform Q13574-4): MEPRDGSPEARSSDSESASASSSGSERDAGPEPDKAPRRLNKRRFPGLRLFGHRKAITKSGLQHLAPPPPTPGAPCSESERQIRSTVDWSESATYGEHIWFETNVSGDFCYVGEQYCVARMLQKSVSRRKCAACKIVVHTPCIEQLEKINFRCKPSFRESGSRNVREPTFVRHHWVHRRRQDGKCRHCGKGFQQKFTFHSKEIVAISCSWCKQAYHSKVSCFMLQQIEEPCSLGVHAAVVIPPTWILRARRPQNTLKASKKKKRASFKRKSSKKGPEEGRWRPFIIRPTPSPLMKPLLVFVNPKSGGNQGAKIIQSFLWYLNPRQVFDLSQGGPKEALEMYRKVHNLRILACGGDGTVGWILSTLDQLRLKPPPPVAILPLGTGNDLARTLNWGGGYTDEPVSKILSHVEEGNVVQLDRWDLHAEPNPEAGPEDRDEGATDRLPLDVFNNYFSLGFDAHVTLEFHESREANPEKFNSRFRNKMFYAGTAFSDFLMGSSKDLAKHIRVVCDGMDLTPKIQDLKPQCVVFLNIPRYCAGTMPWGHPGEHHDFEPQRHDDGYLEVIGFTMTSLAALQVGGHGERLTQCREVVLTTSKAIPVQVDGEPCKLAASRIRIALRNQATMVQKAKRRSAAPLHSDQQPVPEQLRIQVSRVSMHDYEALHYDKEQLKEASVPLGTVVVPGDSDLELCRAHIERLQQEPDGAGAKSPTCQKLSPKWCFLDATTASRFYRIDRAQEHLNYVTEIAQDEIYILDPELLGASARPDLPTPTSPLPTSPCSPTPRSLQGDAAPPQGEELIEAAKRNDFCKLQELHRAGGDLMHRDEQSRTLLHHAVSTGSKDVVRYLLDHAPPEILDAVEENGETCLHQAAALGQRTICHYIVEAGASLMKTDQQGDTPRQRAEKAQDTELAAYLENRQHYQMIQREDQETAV
T2 sequence (P23743 whole entry): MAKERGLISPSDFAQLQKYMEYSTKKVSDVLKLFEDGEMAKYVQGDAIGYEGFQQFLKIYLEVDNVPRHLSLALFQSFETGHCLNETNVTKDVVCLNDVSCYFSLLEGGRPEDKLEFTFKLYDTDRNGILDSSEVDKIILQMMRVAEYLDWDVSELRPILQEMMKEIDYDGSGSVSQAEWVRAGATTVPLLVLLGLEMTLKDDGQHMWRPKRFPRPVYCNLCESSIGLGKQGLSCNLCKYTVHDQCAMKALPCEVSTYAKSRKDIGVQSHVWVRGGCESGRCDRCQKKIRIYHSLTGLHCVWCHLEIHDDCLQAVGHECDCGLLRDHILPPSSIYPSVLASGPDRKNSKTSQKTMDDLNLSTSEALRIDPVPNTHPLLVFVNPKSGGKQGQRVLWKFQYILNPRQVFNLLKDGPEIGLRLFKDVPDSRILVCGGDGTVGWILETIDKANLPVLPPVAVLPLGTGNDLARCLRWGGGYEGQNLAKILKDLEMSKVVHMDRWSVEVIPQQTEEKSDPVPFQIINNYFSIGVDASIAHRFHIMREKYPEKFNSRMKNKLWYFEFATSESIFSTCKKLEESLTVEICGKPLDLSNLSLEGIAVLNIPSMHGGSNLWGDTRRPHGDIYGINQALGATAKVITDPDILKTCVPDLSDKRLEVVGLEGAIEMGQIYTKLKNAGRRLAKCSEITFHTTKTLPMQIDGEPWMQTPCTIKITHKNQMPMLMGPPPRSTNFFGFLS

One may read the IC50 as the midpoint of a concentration-inhibition curve. The low end stands for higher potency, the high end for lower potency. `CCn1c(CC#N)nc2c(N3C[C@@H](C)N(C(C)c4ccc5c(c4)CN(C)C5=O)C[C@@H]3C)nc(=O)n(C)c21` (stereo partly drawn) [Compound A101, 2-(6-((2S,5R)-2,5-dimethyl-4-(1-(2-methyl-1-oxoisoindolin-5-yl)ethyl)piperazin-1-yl)-9-ethyl-3-methyl-2-oxo-3,9-dihydro-2H-purin-8-yl)acetonitrile]: the IC50 in test [1] is 4230 nM; in test [2] it was more than 150000 nM.
Consider `[2H]C([2H])([2H])n1c(CC#N)nc2c(N3C[C@@H](C)N(C(C)c4ccc(F)cc4C(F)(F)F)C[C@@H]3C)nc(=O)n(C)c21` (stereo partly drawn) [Compound A37, 2-(6-((2S,5R)-4-(1-(4-fluoro-2-(trifluoromethyl)phenyl)ethyl)-2,5-dimethylpiperazin-1-yl)-3-methyl-9-(methyl-d3)-2-oxo-3,9-dihydro-2H-purin-8-yl)acetonitrile], for which the 50% inhibitory concentration (IC50) in test [1] came out at 18 nM; in test [2] it was 128000 nM.
The corresponding values for `Cc1ccc(C(C)N2C[C@H](C)N(c3cc(=O)n(C)c4c3nc(CC#N)n4C)C[C@H]2C)cc1` (single isomer, unassigned) [Compound A5b] are 88 nM and 616 nM.
The corresponding values for `CCn1c(CC#N)nc2c(N3C[C@@H](C)N(C(C)c4ccc5c(c4F)OC(C)(C)O5)C[C@@H]3C)nc(=O)n(C)c21` (single isomer, unassigned) [Compound A175b] are 4 nM and 21400 nM.
The corresponding values for `CCn1c(CC#N)nc2c(N3C[C@@H](C)N(C(C)c4ccc(C)c(C(F)(F)F)c4)C[C@@H]3C)nc(=O)n(C)c21` (stereo partly drawn) [Compound A115, 2-(6-((2S,5R)-2,5-dimethyl-4-(1-(4-methyl-3-(trifluoromethyl)phenyl)ethyl)piperazin-1-yl)-9-ethyl-3-methyl-2-oxo-3,9-dihydro-2H-purin-8-yl)acetonitrile] are 19 nM and more than 150000 nM.
`CCn1c(CC#N)nc2c(N3C[C@@H](C)N(C(C)c4ccc5c(c4)OC(F)(F)O5)C[C@@H]3C)nc(=O)n(C)c21` (stereo partly drawn) [Compound A99, 2-(6-((2S,5R)-4-(1-(2,2-difluorobenzo[d][1,3]dioxol-5-yl)ethyl)-2,5-dimethylpiperazin-1-yl)-9-ethyl-3-methyl-2-oxo-3,9-dihydro-2H-purin-8-yl)acetonitrile]: the IC50 was 128 nM in test [1] and 55600 nM in test [2].
On the same counts, the results for `COCc1cc(F)ccc1C(C)N1C[C@H](C)N(c2nc(=O)n(C)c3c2nc(CC#N)n3C)C[C@H]1C` (single isomer, unassigned) [Compound A27a] are 569 nM and more than 10000 nM.
The corresponding values for `CCn1c(CC#N)nc2c(N3C[C@@H](C)N(C(C)c4c(F)cc5c(c4F)OC(C)(C)O5)C[C@@H]3C)nc(=O)n(C)c21` (single isomer, unassigned) [Compound A176a] are 40 nM and 13100 nM.
With `CCn1c(CC#N)nc2c(N3C[C@@H](C)N(C(C)c4ccc5c(c4)OC(F)(F)CO5)C[C@@H]3C)nc(=O)n(C)c21` (single isomer, unassigned) [Compound A80a], the IC50 in test [1] worked out at 7 nM; in test [2], 65600 nM.
For `CCn1c(CC#N)nc2c(N3C[C@@H](C)N(C(C)c4ccc5c(c4)OC(C)(C)CC5)C[C@@H]3C)nc(=O)n(C)c21` (mixture of isomers) [Compound A94, 2-(6-((2S,5R)-4-(1-(2,2-dimethylchroman-7-yl)ethyl)-2,5-dimethylpiperazin-1-yl)-9-ethyl-3-methyl-2-oxo-3,9-dihydro-2H-purin-8-yl)acetonitrile], the IC50 is 14 nM in test [1] and 23200 nM in test [2].
With `CC(c1cc(F)c2c(c1)OC(C)(C)CO2)N1C[C@H](C)N(c2nc(=O)n(C)c3c2nc(CC#N)n3C)C[C@H]1C` (single isomer, unassigned) [Compound A68b], the IC50 was 199 nM in test [1] and 72800 nM in test [2].
On the same counts, the results for `CC#CC(c1ccc(C)cc1)N1C[C@H](C)N(c2nc(=O)n(C)c3c2nc(CC#N)n3CC)C[C@H]1C` (stereo partly drawn) [Compound A145, 2-(6-((2S,5R)-2,5-dimethyl-4-(1-(p-tolyl)but-2-yn-1-yl)piperazin-1-yl)-9-ethyl-3-methyl-2-oxo-3,9-dihydro-2H-purin-8-yl)acetonitrile] are 480 nM and 5620 nM.
On the same counts, the results for `CC[C@@H]1CN(c2nc(=O)n(C)c3c2nc(CC#N)n3CC)[C@@H](C)CN1C(C)c1ccc2c(n1)OC(C)(C)CO2` (single isomer, unassigned) [Compound A158b] are 407 nM and more than 150000 nM.
On the same counts, the results for `CCn1c(CC#N)nc2c(N3C[C@@H](C)N(C(C)c4ccc5c(c4)C(=O)N(C)CO5)C[C@@H]3C)nc(=O)n(C)c21` (stereo partly drawn) [Compound A192, 2-(6-((2S,5R)-2,5-dimethyl-4-(1-(3-methyl-4-oxo-3,4-dihydro-2H-benzo[e][1,3]oxazin-6-yl)ethyl)piperazin-1-yl)-9-ethyl-3-methyl-2-oxo-3,9-dihydro-2H-purin-8-yl)acetonitrile] are 119 nM and more than 150000 nM.
Take `CCn1c(CC#N)nc2c(N3C[C@@H](C)N(C(C)c4ccc5sc(C(C)C)nc5c4)C[C@@H]3C)nc(=O)n(C)c21` (stereo partly drawn) [Compound A96, 2-(9-ethyl-6-((2S,5R)-4-(1-(2-isopropylbenzo[d]thiazol-5-yl)ethyl)-2,5-dimethylpiperazin-1-yl)-3-methyl-2-oxo-3,9-dihydro-2H-purin-8-yl)acetonitrile]: the IC50 came to 63 nM in test [1] and 49600 nM in test [2].
The corresponding values for `CC(c1cc2c(cc1F)OCC(C)(C)O2)N1C[C@H](C)N(c2nc(=O)n(C)c3c2nc(CC#N)n3C)C[C@H]1C` (single isomer, unassigned) [Compound A69a] are 2 nM and 1190 nM.
The corresponding values for `C=C(C)c1cc(C(C)N2C[C@H](C)N(c3nc(=O)n(C)c4c3nc(CC#N)n4CC)C[C@H]2C)ccc1F` (stereo partly drawn) [Compound A135, 2-(9-ethyl-6-((2S,5R)-4-(1-(4-fluoro-3-(prop-1-en-2-yl)phenyl)ethyl)-2,5-dimethylpiperazin-1-yl)-3-methyl-2-oxo-3,9-dihydro-2H-purin-8-yl)acetonitrile] are 14 nM and more than 150000 nM.
With `CC(c1ccc(F)cc1OC(C)(F)F)N1C[C@H](C)N(c2nc(=O)n(C)c3c2nc(CC#N)n3C)C[C@H]1C` (stereo partly drawn) [Compound A31, 2-(6-((2S,5R)-4-(1-(2-(1,1-difluoroethoxy)-4-fluorophenyl)ethyl)-2,5-dimethylpiperazin-1-yl)-3,9-dimethyl-2-oxo-3,9-dihydro-2H-purin-8-yl)acetonitrile], the IC50 in test [1] was determined as 4 nM; in test [2], 110000 nM.
For `CCn1c(=O)nc(N2C[C@@H](C)N(C(C)c3ccc4c(c3)OC(C)(C)CO4)C[C@@H]2C)c2nc(CC#N)n(C)c21` (single isomer, unassigned) [Compound A61b], the IC50 worked out at 420 nM in test [1] and 37900 nM in test [2].
`CCn1c(CC#N)nc2c(N3C[C@@H](C)N(C(C)c4ccnc(N5CCC5)c4)C[C@@H]3C)nc(=O)n(C)c21` (stereo partly drawn) [Compound A121, 2-(6-((2S,5R)-4-(1-(2-(azetidin-1-yl)pyridin-4-yl)ethyl)-2,5-dimethylpiperazin-1-yl)-9-ethyl-3-methyl-2-oxo-3,9-dihydro-2H-purin-8-yl)acetonitrile]: the IC50 is 212 nM in test [1] and more than 150000 nM in test [2].
